# Source: patent publication US10144738B2, “Pyrazolo[1,5-A]PYRAZIN-4-YL derivatives” (Pfizer Inc., priority 2016, dated 2018)
# Columns and labels:
# TYK2 = TYK2 (Homo sapiens (Human), UniProt P29597); assay: JAK Caliper enzyme assay at 1 mM ATP (TYK2); assay type: biochemical; conditions: recombinant human kinase domain, Caliper mobility shift
# Description: (§1) Compounds of the invention were evaluated by in vitro methods to determine their respective ability to inhibit the JAK kinases (TYK2, JAK1, JAK2, JAK3).
# (§2) The human JAK inhibitory activity was determined by using a microfluidic assay to monitor phosphorylation of a synthetic peptide by the recombinant human kinase domain of each of the four members of the JAK family, JAK1, JAK2, JAK3 and TYK2. […] Each assay condition was optimized for enzyme concentration and room temperature incubation time to obtain a conversion rate of 20% to 30% phosphorylated peptide product. Reactions were terminated by the addition of stop buffer containing EDTA. Utilizing the LabChip 3000 mobility shift technology (Caliper Life Science), each assay reaction was sampled to determine the level of phosphorylation. This technology is separation-based, allowing direct detection of fluorescently labeled substrates and products. Separations are controlled by a combination of vacuum pressure and electric field strength optimized for each peptide substrate.
# (§3) JAK Caliper Enzyme Assay at 1 mM ATP
# (§4) Compounds were added to a 384-well plate. Reaction mixtures contained 10 mM HEPES, pH 7.4, 10 mM MgCl2, 0.01% BSA, 0.0005% Tween 20, 1 mM ATP and 1 μM peptide substrate. […] The assays were initiated by the addition of 20 nM JAK1, 1 nM JAK2, 1 nM JAK or 1 nM TYK2 enzyme and were incubated at room temperature for three hours for JAK1, 60 minutes for JAK2, 75 minutes for JAK3 or 135 minutes for TYK2. Enzyme concentrations and incubation times were optimized for each new enzyme preps and were modified slightly over time to ensure 20% to 30% phosphorylation. The assays were stopped with 15 μL of 180 mM HEPES, pH 7.4, 20 mM EDTA, and 0.2% Coating Reagent 3. The assay plates were placed on a Caliper Life Science LC3000 instrument, and each well was sampled using appropriate separation conditions to measure the unphosphorylated and phosphorylated peptide.
# (§5) The data was collected using the HTS Well Analyzer software from Caliper Life Sciences. The data output for data analysis is the percent product converted calculated on peak height (Equation 1). % product converted=100*((product)/(product+substrate)) Equation 1: […]
# (§6) The percent effect at each compound concentration was calculated based on the positive and negative control well contained within each assay plate (Equation 2). […] The negative control wells contained DMSO alone (at the same concentration as the compound wells) that was used to set the baseline activity in the assay (i.e., uninhibited JAK1, JAK2, JAK3 or TYK2). % effect=100*((sample well−negative control)/(positive control-negative control)) Equation 2: The percent effect was plotted against the compound concentration compound.
# JAK1 = JAK1 (Homo sapiens (Human), UniProt P23458); assay: JAK Caliper enzyme assay at 1 mM ATP (JAK1); assay type: biochemical; conditions: recombinant human kinase domain, Caliper mobility shift
# Description: Compounds of the invention were evaluated by in vitro methods to determine their respective ability to inhibit the JAK kinases (TYK2, JAK1, JAK2, JAK3). The human JAK inhibitory activity was determined by using a microfluidic assay to monitor phosphorylation of a synthetic peptide by the recombinant human kinase domain of each of the four members of the JAK family, JAK1, JAK2, JAK3 and TYK2. […] Reactions were terminated by the addition of stop buffer containing EDTA. Utilizing the LabChip 3000 mobility shift technology (Caliper Life Science), each assay reaction was sampled to determine the level of phosphorylation. This technology is separation-based, allowing direct detection of fluorescently labeled substrates and products. Separations are controlled by a combination of vacuum pressure and electric field strength optimized for each peptide substrate. […] Compounds were added to a 384-well plate. […] Enzyme concentrations and incubation times were optimized for each new enzyme preps and were modified slightly over time to ensure 20% to 30% phosphorylation. […] The assay plates were placed on a Caliper Life Science LC3000 instrument, and each well was sampled using appropriate separation conditions to measure the unphosphorylated and phosphorylated peptide. The data was collected using the HTS Well Analyzer software from Caliper Life Sciences. […] The percent effect at each compound concentration was calculated based on the positive and negative control well contained within each assay plate (Equation 2). […] The percent effect was plotted against the compound concentration compound. […] Where max is the maximum asymptote (complete inhibition), min is the minimum asymptote (no inhibition) and s is the slope factor.
# JAK2 = JAK2 (Homo sapiens (Human), UniProt O60674); assay: JAK Caliper enzyme assay at 1 mM ATP (JAK2); assay type: biochemical; conditions: recombinant human kinase domain, Caliper mobility shift
# Description: as §1, §2, §3, §4, §5, §6
# JAK3 = JAK3 (Homo sapiens (Human), UniProt P52333); assay: JAK Caliper enzyme assay at 1 mM ATP (JAK3); assay type: biochemical; conditions: recombinant human kinase domain, Caliper mobility shift
# Description: as §1, §2, §3, §4, §5, §6
# [1] = test system: IL-12 induced STAT4 phosphorylation (IL-12 signals through TYK2 and JAK2); assay: Human Whole Blood IL-12 Induced STAT4 Phosphorylation Assay; assay type: cell-based; conditions: Lymphocyte, IL-12 5 ng/mL, pSTAT4 in lymphocytes by flow cytometry, read-out: HWB IL-12 IC50
# Description: Selected compounds were assessed for their ability to inhibit IL-12 signaling in a human whole blood flow cytometry assay. IL-12 signals through TYK2 and JAK2. Human Whole Blood IL-12 Induced STAT4 Phosphorylation Assay
# Test articles were prepared as 30 mM stocks in DMSO. An 11-point 2.5 dilution series was created in DMSO with a top concentration of 10 mM. Further dilution was done by adding 4 μL of the above test article solutions into 96 μL of PBS with a top concentration of 400 μM. […] Blood was warmed to 37° C. prior to use. Human whole blood was aliquoted ([…]) in 96-well, deep-well, V-bottom plates and treated with compounds at 11 different concentrations (0.2% DMSO final) at 37° C. for 60 minutes. This was followed by a challenge with IL-12 ([…]; final, 5 ng/mL) for 15 minutes. Samples were treated with warm 1× Lyse/Fix buffer ([…]) to terminate activation and further incubated at 37° C. for 20 minutes to lyse red blood cells. Plates were centrifuged at 300×g for 5 minutes, supernatant was aspirated, and cells were washed with […] of staining buffer (PBS containing 0.5% fetal bovine serum and 0.01% sodium azide). The washed cell pellets were resuspended with […] of pre-chilled 90% methanol, and incubated at 4° C. for 30 minutes. Plates were centrifuged at 300×g for 5 minutes, supernatant containing 90% methanol was aspirated, and cells were washed with […]/well of staining buffer. Cell pellets were resuspended in staining buffer containing anti-pSTAT4-AlexaFluor647 (1 to 150 dilution, […]), and incubated at room temperature in the dark overnight.
# Samples were transferred to 96-well U-bottom plates and flow cytometric analysis was performed on a FACSCalibur or LSRFortessa equipped with a HTS plate loader (BD Biosciences). The lymphocyte population was gated for histogram analysis of pSTAT4. Background fluorescence was defined using unstimulated cells and a gate was placed at the foot of the peak to include ˜0.5% gated population. The histogram statistical analysis was performed using CellQuestO Pro version 5.2.1 (BD Biosciences) or FACSDiva version 6.2 (BD Biosciences) software. Relative fluorescence unit (RFU), which measures the level of phospho STAT4, was calculated by multiplying the percent positive population and its mean fluorescence. Data from 11 compound concentrations (singlicate at each concentration) was normalized as a percentage of control based on the formula: % of Control=100×(A−B)/(C−B) where A is the RFU from wells containing compound and IL-12, B is the RFU from wells without IL-12 and compound (minimum fluorescence) and C is the RFU from wells containing only IL-12 (maximum fluorescence). Inhibition curves and IC50 values were determined using the Prism version 5 software (GraphPad, La Jolla, Calif.).
# TYK2, sequence (P29597 897-1176): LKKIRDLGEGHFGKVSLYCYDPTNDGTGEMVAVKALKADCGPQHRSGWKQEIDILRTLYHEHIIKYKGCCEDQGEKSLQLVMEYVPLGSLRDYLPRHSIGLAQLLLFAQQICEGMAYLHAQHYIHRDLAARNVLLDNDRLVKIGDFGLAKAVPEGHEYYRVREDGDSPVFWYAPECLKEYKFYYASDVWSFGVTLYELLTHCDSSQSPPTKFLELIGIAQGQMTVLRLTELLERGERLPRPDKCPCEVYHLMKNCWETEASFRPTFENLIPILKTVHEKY
# JAK2, sequence (O60674 849-1124): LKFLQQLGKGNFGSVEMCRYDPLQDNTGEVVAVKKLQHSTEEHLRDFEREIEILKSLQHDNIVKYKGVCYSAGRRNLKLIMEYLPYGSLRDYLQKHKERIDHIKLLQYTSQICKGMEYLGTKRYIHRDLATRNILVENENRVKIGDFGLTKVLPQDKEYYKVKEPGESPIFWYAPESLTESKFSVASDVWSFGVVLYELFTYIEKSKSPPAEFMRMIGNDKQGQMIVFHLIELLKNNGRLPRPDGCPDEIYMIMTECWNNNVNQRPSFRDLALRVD
# JAK1, sequence (P23458 875-1153): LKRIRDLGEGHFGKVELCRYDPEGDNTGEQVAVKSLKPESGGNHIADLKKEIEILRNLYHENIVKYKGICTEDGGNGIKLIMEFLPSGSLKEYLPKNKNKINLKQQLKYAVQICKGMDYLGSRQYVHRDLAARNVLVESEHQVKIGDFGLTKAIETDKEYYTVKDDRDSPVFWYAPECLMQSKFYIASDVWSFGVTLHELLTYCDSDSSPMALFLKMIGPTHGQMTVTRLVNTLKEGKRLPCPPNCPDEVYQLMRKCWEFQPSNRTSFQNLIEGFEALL
# JAK3, sequence (P52333 822-1111): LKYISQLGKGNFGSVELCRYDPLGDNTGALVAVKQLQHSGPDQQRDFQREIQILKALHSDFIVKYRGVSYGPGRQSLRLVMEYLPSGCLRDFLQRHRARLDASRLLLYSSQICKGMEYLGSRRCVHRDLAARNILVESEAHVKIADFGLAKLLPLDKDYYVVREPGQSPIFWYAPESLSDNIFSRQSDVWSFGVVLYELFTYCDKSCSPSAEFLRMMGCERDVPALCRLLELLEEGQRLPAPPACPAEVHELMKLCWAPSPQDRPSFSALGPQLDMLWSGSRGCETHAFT
Compound,IC50 (TYK2),IC50 (JAK1),IC50 (JAK2),IC50 (JAK3),IC50 [1]
"Cn1cc(-c2cn3nccc3c(-c3cnn([C@]4(CC#N)C[C@@H](C#N)C4)c3)n2)c(N)n1 [Example 23, (1r,3r)-3-(4-(6-(3-Amino-1-methyl-1H-pyrazol-4-yl)pyrazolo[1,5-a]pyrazin-4-yl)-1H-pyrazol-1-yl)-3-(cyanomethyl)cyclobutane-1-carbonitrile]",9 nM,431 nM,26 nM,9410 nM,34 nM
"Cn1cc(-c2cn3nccc3c(-c3cnn([C@]4(CC#N)C[C@@H](C#N)C4)c3)n2)cn1 [Example 20, (1r,3r)-3-(Cyanomethyl)-3-(4-(6-(1-methyl-1H-pyrazol-4-yl)pyrazolo[1,5-a]pyrazin-4-yl)-1H-pyrazol-1-yl)cyclobutane-1-carbonitrile]",–,–,–,–,50 nM
"Cn1cc(-c2cn3nccc3c(-c3cnn([C@]4(CC#N)C[C@H](CC#N)C4)c3)n2)cn1 [Example 11, 2,2′-((1s,3s)-1-(4-(6-(1-Methyl-1H-pyrazol-4-yl)pyrazolo[1,5-a]pyrazin-4-yl)-1H-pyrazol-1-yl)cyclobutane-1,3-diyl)diacetonitrile]",8 nM,273 nM,38 nM,> 6170 nM,–
"Cn1cc(-c2cn3nccc3c(-c3cnn(C4(CC#N)CCC4)c3)n2)cn1 [Example 4, 2-(1-(4-(6-(1-Methyl-1H-pyrazol-4-yl)pyrazolo[1,5-a]pyrazin-4-yl)-1H-pyrazol-1-yl)cyclobutyl)acetonitrile]",55 nM,1340 nM,141 nM,> 10000 nM,–
"C[C@H]1N(CC(F)(F)F)C[C@]1(CC#N)n1cc(-c2nc(-c3cnn(C)c3)cn3nccc23)cn1 [Example 17, 2-((2R,3S)-2-Methyl-3-(4-(6-(1-methyl-1H-pyrazol-4-yl)pyrazolo[1,5-a]pyrazin-4-yl)-1H-pyrazol-1-yl)-1-(2,2,2-trifluoroethyl)azetidin-3-yl)acetonitrile]",35 nM,1730 nM,205 nM,10000 nM,–
"Cc1nn([C@]2(CC#N)C[C@@H](C#N)C2)cc1-c1nc(-c2cnn(C)c2)cn2nccc12 [Example 21, (1r,3r)-3-(Cyanomethyl)-3-(3-methyl-4-(6-(1-methyl-1H-pyrazol-4-yl)pyrazolo[1,5-a]pyrazin-4-yl)-1H-pyrazol-1-yl)cyclobutane-1-carbonitrile]",34 nM,1290 nM,109 nM,> 10000 nM,–

# The remaining lines, values ahead:
IC50 (TYK2),IC50 (JAK1),IC50 (JAK2),IC50 (JAK3),IC50 [1],Compound
–,–,–,–,28 nM,"Cn1cc(-c2cn3nccc3c(-c3cnn([C@]4(CC#N)C[C@H](C#N)C4)c3)n2)cn1 [Example 19, (1s,3s)-3-(Cyanomethyl)-3-(4-(6-(1-methyl-1H-pyrazol-4-yl)pyrazolo[1,5-a]pyrazin-4-yl)-1H-pyrazol-1-yl)cyclobutane-1-carbonitrile]"
8 nM,185 nM,49 nM,> 10000 nM,–,"Cn1cc(-c2cn3nccc3c(-c3cnn(C4(CC#N)CN(S(=O)(=O)C5CC5)C4)c3)n2)cn1 [Example 9, 2-(1-(Cyclopropylsulfonyl)-3-(4-(6-(1-methyl-1H-pyrazol-4-yl)pyrazolo[1,5-a]pyrazin-4-yl)-1H-pyrazol-1-yl)azetidin-3-yl)acetonitrile]"
47 nM,1080 nM,206 nM,10000 nM,–,"Cn1cc(-c2cn3nccc3c(-c3cnn([C@]4(CC#N)C[C@@H](c5ccn[nH]5)C4)c3)n2)cn1 [Example 18, 2-((1r,3r)-1-(4-(6-(1-Methyl-1H-pyrazol-4-yl)pyrazolo[1,5-a]pyrazin-4-yl)-1H-pyrazol-1-yl)-3-(1H-pyrazol-5-yl)cyclobutyl)acetonitrile]"
1600 nM,3520 nM,755 nM,> 10000 nM,–,"Cc1cc2c(-c3cnn([C@]4(CC#N)C[C@@H](C#N)C4)c3)nc(-c3cnn(C)c3)cn2n1 [Example 36, (1r,3r)-3-(Cyanomethyl)-3-(4-(2-methyl-6-(1-methyl-1H-pyrazol-4-yl)pyrazolo[1,5-a]pyrazin-4-yl)-1H-pyrazol-1-yl)cyclobutane-1-carbonitrile]"
11 nM,96 nM,19 nM,3260 nM,–,"Cn1cc(-c2cn3nccc3c(-c3cnn([C@]4(CC#N)C[C@](C)(C#N)C4)c3)n2)cn1 [Example 34, (1s,3s)-3-(Cyanomethyl)-1-methyl-3-(4-(6-(1-methyl-1H-pyrazol-4-yl)pyrazolo[1,5-a]pyrazin-4-yl)-1H-pyrazol-1-yl)cyclobutane-1-carbonitrile]"
–,–,40 nM,> 9790 nM,162 nM,"N#CC[C@]1(n2cc(-c3nc(-c4cc(CO)on4)cn4nccc34)cn2)C[C@@H](C#N)C1 [Example 1, (1s,3s)-3-(Cyanomethyl)-3-(4-(6-(5-(hydroxymethyl)isoxazol-3-yl)pyrazolo[1,5-a]pyrazin-4-yl)-1H-pyrazol-1-yl)cyclobutane-1-carbonitrile]"
352 nM,3930 nM,3040 nM,> 10000 nM,–,"N#CC[C@]1(n2cc(-c3nc(-c4cc(C(N)=O)no4)cn4nccc34)cn2)C[C@H](C#N)C1 [Example 29, 5-(4-(1-((1r,3r)-3-Cyano-1-(cyanomethyl)cyclobutyl)-1H-pyrazol-4-yl)pyrazolo[1,5-a]pyrazin-6-yl)isoxazole-3-carboxamide]"
